Data reported in PubChem BioAssay AID330 (DTP/NCI, 2004).
Several values for one entry are separate records, joined by “and”; a condition that tells them apart may be missing. Equal values may be shown once. Toxic doses and inconclusive results are not listed. The calls were made as follows: active = survival T/C of 150% or more; inactive = T/C below 125% in these data.

Tested on: P388 leukemia ip, CD2F1 mice, survival T/C
Assay: NCI In Vivo Anticancer Drug Screen. Data for tumor model P388 Leukemia (intraperitoneal) in CD2F1 (CDF1) mice
Conditions: endpoint: median survival time, higher = longer survival
Summary of the method: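 Mice carrying the transplanted tumor received test compound or vehicle. Survival was recorded in each group, and the value is the treated-group measurement divided by that of the vehicle-treated control group.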

[1] = dose: 25.0 mg/kg/injection, schedule: Q01DX009 (ip), vehicle: saline
[2] = dose: 50.0 mg/kg/injection, schedule: Q01DX009 (ip), vehicle: saline
[3] = dose: 100.0 mg/kg/injection, schedule: Q01DX009 (ip), vehicle: saline
[4] = dose: 50.0 mg/kg/injection, schedule: Q01DX009 (ip), vehicle: saline with Tween-80
[5] = dose: 100.0 mg/kg/injection, schedule: Q01DX009 (ip), vehicle: saline with Tween-80
[6] = dose: 200.0 mg/kg/injection, schedule: Q01DX009 (ip), vehicle: saline with Tween-80
[7] = dose: 12.5 mg/kg/injection, schedule: Q01DX009 (ip), vehicle: saline
[8] = dose: 200.0 mg/kg/injection, schedule: Q01DX009 (ip), vehicle: saline
[9] = dose: 100.0 mg/kg/injection, schedule: Q01DX001 (ip), vehicle: saline
[10] = dose: 200.0 mg/kg/injection, schedule: Q01DX001 (ip), vehicle: saline
[11] = dose: 12.5 mg/kg/injection, schedule: Q01DX009 (ip), vehicle: Klucel (hydroxypropylcellulose) (HPC)
[12] = dose: 25.0 mg/kg/injection, schedule: Q01DX009 (ip), vehicle: Klucel (hydroxypropylcellulose) (HPC)
[13] = dose: 50.0 mg/kg/injection, schedule: Q01DX009 (ip), vehicle: Klucel (hydroxypropylcellulose) (HPC)
[14] = dose: 50.0 mg/kg/injection, schedule: Q01DX005 (ip), vehicle: saline with Tween-80
[15] = dose: 100.0 mg/kg/injection, schedule: Q01DX005 (ip), vehicle: saline with Tween-80
[16] = dose: 200.0 mg/kg/injection, schedule: Q01DX005 (ip), vehicle: saline with Tween-80
[17] = dose: 25.0 mg/kg/injection, schedule: Q01DX009 (ip), vehicle: saline with Tween-80

Measured: T/C

O=P(c1ccccc1)(c1ccccc1)c1ccccc1.O=P(c1ccccc1)(c1ccccc1)c1ccccc1.O=S(=O)(O)O.[Fe]
inactive: dose: 100.0 mg/kg/injection, schedule: Q04DX003 (ip), vehicle: Klucel (hydroxypropylcellulose) (HPC) 93 % of control | dose: 200.0 mg/kg/injection, schedule: Q04DX003 (ip), vehicle: Klucel (hydroxypropylcellulose) (HPC) 89 % of control

CCN(CC)CCOC(=O)c1ccc(NC(=O)Nc2ccc(C(=O)OCCN(CC)CC)cc2)cc1
inactive: [1] 102 % of control | [2] 107 % of control | [3] 118 % of control

Cn1c(O)c(N=O)c(=O)[nH]c1=O
inactive: [4] 95 % of control | [5] 99 % of control | dose: 100.0 mg/kg/injection, schedule: Q04DX002 (ip), vehicle: saline with Tween-80 100 % of control | [6] 87 % of control

N#Cc1cccnc1.NCCNCCN.[Br-].[Pt+4]
inactive: [7] 100 % of control | [1] 96 % of control | [2] 105 % of control | [3] 103 % of control | [8] 102 % of control

CC1(c2ccccc2)NC(=O)NC1=O (stereo not drawn)
inactive: dose: 50.0 mg/kg/injection, schedule: Q01DX001 (ip), vehicle: saline 100 % of control | [9] 110 % of control | [10] 115 % of control

CCN1CC2(COC)CCC(OC)C34C5CC6C(OC)CC(O)(C5C6O)C(O)(C(OC)C23)C14 (stereo not drawn)
inactive: dose: 3.75 mg/kg/injection, schedule: Q01DX005 (ip), vehicle: saline + alcohol 96 % of control | dose: 7.5 mg/kg/injection, schedule: Q01DX005 (ip), vehicle: saline + alcohol 100 % of control | dose: 15.0 mg/kg/injection, schedule: Q01DX005 (ip), vehicle: saline + alcohol 102 % of control | dose: 30.0 mg/kg/injection, schedule: Q01DX005 (ip), vehicle: saline + alcohol 92 % of control | dose: 60.0 mg/kg/injection, schedule: Q01DX005 (ip), vehicle: saline + alcohol 99 % of control

CC1=NN(C(=O)c2ccncc2)C(=O)C1N=Nc1ccc(S(=O)(=O)Nc2ccccn2)cc1 (stereo not drawn)
inactive: [4] 92 % of control | [5] 90 % of control | [6] 103 % of control

CN(C)c1ccc(/C=C/c2c(F)cnc3ccccc23)cc1
inactive: [11] 114 % of control | [12] 101 % of control | [13] 104 % of control

CCCN=C1NS(=O)(=O)c2ccccc21
inactive: [14] 110 % of control | [15] 98 % of control | [16] 93 % of control

O=c1sc2ccccc2n1CCCl
inactive: [17] 112 % of control | [4] 110 % of control | [5] 114 % of control | [6] 103 % of control

C/C(N=NC(=S)N1CCCC1)=C1\C=CC=CN1O
inactive: [14] 106 % of control | [15] 103 % of control | [16] 112 % of control

C=C1C(=O)OC2CC(C)C3OC3C(=O)C(C)(O)C(O)C(O)C12 (stereo not drawn) (tested in a mixture with another compound)
inactive: dose: 6.25 mg/kg/injection, schedule: Q01DX009 (ip), vehicle: Klucel (hydroxypropylcellulose) (HPC) 104 % of control | [11] 101 % of control and 117 % of control | [12] 110 % of control and 123 % of control | [13] 123 % of control | dose: 200.0 mg/kg/injection, schedule: Q01DX009 (ip), vehicle: Klucel (hydroxypropylcellulose) (HPC) 119 % of control

O=C(CCCCCCCCc1ccc(O)cc1)c1c(O)cccc1O
inactive: dose: 6.5 mg/kg/injection, schedule: Q01DX009 (ip), vehicle: Klucel (hydroxypropylcellulose) (HPC) 101 % of control | dose: 13.0 mg/kg/injection, schedule: Q01DX009 (ip), vehicle: Klucel (hydroxypropylcellulose) (HPC) 108 % of control | dose: 26.0 mg/kg/injection, schedule: Q01DX009 (ip), vehicle: Klucel (hydroxypropylcellulose) (HPC) 95 % of control | dose: 52.0 mg/kg/injection, schedule: Q01DX009 (ip), vehicle: Klucel (hydroxypropylcellulose) (HPC) 105 % of control

CC1=CC(O)(C2(C)OC(C)(C)OC2=O)CCC1 (stereo not drawn)
inactive: [9] 100 % of control | [10] 100 % of control | dose: 400.0 mg/kg/injection, schedule: Q01DX001 (ip), vehicle: saline 100 % of control

C=C(C)c1nc(Oc2ccccc2)nc(Oc2ccccc2)n1
inactive: dose: 200.0 mg/kg/injection, schedule: Q01DX001 (ip), vehicle: Klucel (hydroxypropylcellulose) (HPC) 88 % of control | dose: 400.0 mg/kg/injection, schedule: Q01DX001 (ip), vehicle: Klucel (hydroxypropylcellulose) (HPC) 89 % of control

Cn1cc(-c2ccc3c(c2)OCO3)c2ccccc21
inactive: dose: 60.0 mg/kg/injection, schedule: Q01DX005 (ip), vehicle: saline with Tween-80 100 % of control | dose: 120.0 mg/kg/injection, schedule: Q01DX005 (ip), vehicle: saline with Tween-80 100 % of control | dose: 240.0 mg/kg/injection, schedule: Q01DX005 (ip), vehicle: saline with Tween-80 101 % of control

CCOP1(=O)N(C)CCN1C
inactive: [7] 117 % of control | [1] 111 % of control | [2] 101 % of control

O=C1SC/C(=N\N=c2/scc(-c3ccccc3)n2-c2ccccc2)N1Cc1ccccc1
inactive: dose: 100.0 mg/kg/injection, schedule: Q04DX002 (ip), vehicle: Klucel (hydroxypropylcellulose) (HPC) 90 % of control | dose: 200.0 mg/kg/injection, schedule: Q04DX002 (ip), vehicle: Klucel (hydroxypropylcellulose) (HPC) 91 % of control | dose: 400.0 mg/kg/injection, schedule: Q04DX002 (ip), vehicle: Klucel (hydroxypropylcellulose) (HPC) 88 % of control

CN1OC(=O)OC2(CCCCC2)C1=O
inactive: dose: 50.0 mg/kg/injection, schedule: Q01DX005 (ip), vehicle: saline 96 % of control | dose: 100.0 mg/kg/injection, schedule: Q01DX005 (ip), vehicle: saline 99 % of control | dose: 200.0 mg/kg/injection, schedule: Q01DX005 (ip), vehicle: saline 96 % of control

CC(=O)OC1C(O)C(C)OC(OC2C(OC(=O)C3CCC4C(C3)OC3(CC(OC(=O)/C=C/c5ccccc5)C(C)CO3)C43CO3)OC(C)C(O)C2OC(C)=O)C1O (stereo not drawn)
inactive: dose: 0.25 mg/kg/injection, schedule: Q01DX009 (ip), vehicle: saline 91 % of control | dose: 0.5 mg/kg/injection, schedule: Q01DX009 (ip), vehicle: saline 100 % of control | dose: 1.0 mg/kg/injection, schedule: Q01DX009 (ip), vehicle: saline + alcohol 113 % of control | dose: 1.0 mg/kg/injection, schedule: Q01DX009 (ip), vehicle: saline 110 % of control | dose: 2.0 mg/kg/injection, schedule: Q01DX009 (ip), vehicle: saline + alcohol 119 % of control | dose: 2.0 mg/kg/injection, schedule: Q01DX009 (ip), vehicle: saline 117 % of control | dose: 4.0 mg/kg/injection, schedule: Q01DX009 (ip), vehicle: saline + alcohol 124 % of control

CC12C(=O)C=CCC1=CCC1C2CCC2(O)C(=O)OC3(C)C4CC5(C)C(COC16OC23C5C6=O)C(=O)O4 (stereo not drawn)
inactive: [17] 96 % of control | [4] 110 % of control | [5] 120 % of control | dose: 150.0 mg/kg/injection, schedule: Q01DX009 (ip), vehicle: Klucel (hydroxypropylcellulose) (HPC) 121 % of control

CC(C)OP(=O)(NNP(=O)(OC(C)C)OC(C)C)OC(C)C
inactive: [2] 104 % of control | [3] 105 % of control | [8] 114 % of control
